Assay results reported in patent US12540142B2, “Method for evaluating quality of (3S)-3-(4-(3-(1,4-dioxaspiro[4,5]dec-7-en-8-yl)benzyloxy)phenyl)hex-4-inoic acid” (Hyundai Pharm Co., Ltd., priority 2020, dated 2026).

Assays:
[1] = Related substance analysis by HPLC after refrigerated storage for about 2 years; assay type: physicochemical; conditions: substance stored under refrigerated conditions (5° C.±3° C.) for about 2 years; for Area %: HPLC 220 nm
Method: About 35 mg of a (3S)-3-(4-(3-(1,4-dioxaspiro[4,5]dec-7-en yl)benzyloxy)phenyl)hex-4-inoic acid-containing substance stored under refrigerated conditions (5° C.±3° C.) for about 2 years was accurately weighed and put into a 50-ml volume flask, a diluent was added to the flask at about ⅔ of the volume, and the resulting mixture was mixed well. Thereafter, a related substance was analyzed using HPLC (Agilent Technologies 1200 Series).
<HPLC conditions> Operation Parameters
Column: Kinetex EVO C18, 5 um, 4.6×250 mm
Column temperature: 25° C.
Sample concentration: 0.7 mg/ml
Mobile Phase A: 0.01 M K2HPO4 (pH 7)

[2] = Stress sample with oxidant (3% hydrogen peroxide), related substance analysis by HPLC; assay type: physicochemical; conditions: 3% hydrogen peroxide solution, room temperature, 24 hours; HPLC as in Example 1
Method: A stress sample stressed using an oxidant was prepared to confirm the production of the related substance. About 35 mg of a (3S)-3-(4-(3-(1,4-dioxaspiro[4,5]dec-7-en-8-yl)benzyloxy)phenyl)hex-4-inoic acid-containing substance stored under refrigerated conditions (5° C.±3° C.) for about 2 years was accurately weighed and put into a 50-ml volume flask. A diluent was added to the flask at about ⅔ of the volume, and the resulting mixture was mixed well. After 2 ml of a 3% hydrogen peroxide solution was added thereto, the resulting mixture was mixed well and marked with a diluent. The stress sample was left to stand at room temperature, and 24 hours later, the related substance was analyzed using HPLC (Agilent Technologies 1200 Series). The related substance was analyzed under the same conditions as in Example 1. As a result, it was confirmed that the related substance was produced from the stress sample (RRT 0.93, Area 3.83%). A comparison of the HPLC data of both samples using the sample of Example 1 as a control is shown in FIG. 4 (blue: control, green: stress sample). It was confirmed that the production of the related substance of Chemical Formula 2 in the stress sample was increased compared to the control.

[3] = research project title; no test described; cited from earlier work
[4] = research project title; no test described; cited from earlier work; remark: listed apart in the source

Area % [1] [%]	Area of related substance produced (RRT 0.93) [2] [%]	Area % of related substance (RRT: 0.93) ([1]; HPLC) [%]	Compound	hypoglycemic effect (HbA1c) [3] [%]	EC50 [4] [nM]
98.9289	–	–	CC#C[C@@H](CC(=O)O)c1ccc(OCc2cccc(C3=CCC4(CC3)OCCO4)c2)cc1 [Chemical Formula 1, (3S)-3-(4-(3-(1,4-dioxaspiro[4,5]dec-7-en-8-yl)benzyloxy)phenyl)hex-4-inoic acid]	–	–
0.2566	3.83	0.26	CC#C[C@@H](CC(=O)O)c1ccc(OCc2cccc(C34CCC5(CC3O4)OCCO5)c2)cc1 (stereo partly drawn) [Chemical Formula 2, (3S)-3-(4-((3-(7-oxaspiro[bicyclo[4.1.0]heptane-3,2′-[1,3]dioxolan]-6-yl)benzyl)oxy)phenyl)hex-4-inoic acid]	–	–
–	–	–	CC#C[C@@H](CC(=O)O)c1ccc(OCc2cccc(C3=CCC4(CC3)OCCO4)c2)cc1 [HD-6277]	> 1	< 1
